Measurements as given in patent US20230392217A1 (priority 2020, published 2023).
Like-named read-outs stand apart in the source and are kept apart here.

Assays:
[1] = tested on: methicillin-sensitive S. aureus (MSSA); settings: cited from earlier work
[2] = tested on: methicillin-resistant S. aureus (MRSA); settings: cited from earlier work
[3] = tested on: SosA protein of Staphylococcus aureus; assay: SosA expression of Staphylococcus aureus according to concentration of ciprofloxacin, detected using SosA antibodies; format: cell-based; settings: detected using the SosA antibody, FIG. 10
Method: Pellets of microorganisms were suspended with 1 ml of DPBS containing sosA-specific antibodies that were diluted at 1:2,000 and cultured overnight at 37° C., 180 rpm. Thereafter, centrifugation was performed at 13,000 rpm for 1 minute, secondary antibodies (anti-mouse FITC, Abcam) diluted at 1:500 were treated, and culture was performed at 37° C., 180 rpm for 3 hours. 100 ul of a sample was transferred to a 12-well plate containing an 18 mm cover glass and centrifuged at 1,100 rpm for 1 minute, and the bacteria were attached to a cover glass. The plates were washed three times with DPBS, and centrifugation was performed at 1,100 rpm for 1 minute. The cover glass was attached to the slide, and then imaging was performed using the Zeiss LSM 5 live confocal microscope. Images were acquired using Plan-Apochromat 63×1.4 NA objectives, and analysis was performed to detect GFP fluorescence by setting to 488 nm for excitation wavelength and 513±12 nm for emission wavelength.
In addition, each sample was transferred to a 96-well plate, and absorbance measurement and fluorescence analysis were performed using Ensight (PerkinElmer). In the case of green fluorescence, the excitation wavelength was at 488 nm and the emission wavelength was at 528 nm, and in the case of red fluorescence, the excitation wavelength was at 558 nm and the emission wavelength was at 615 nm. […]

CN[C@H](CC(C)C)C(=O)N[C@H]1C(=O)N[C@@H](CC(N)=O)C(=O)N[C@H]2C(=O)N[C@H]3C(=O)N[C@H](C(=O)N[C@H](C(=O)O)c4cc(O)cc(O)c4-c4cc3ccc4O)[C@H](O)c3ccc(c(Cl)c3)Oc3cc2cc(c3O[C@@H]2O[C@H](CO)[C@@H](O)[C@H](O)[C@H]2O[C@H]2C[C@](C)(N)[C@H](O)[C@H](C)O2)Oc2ccc(cc2Cl)[C@H]1O [Vancomycin, vancomycin]
antibiotic susceptibility/resistance ([1]; strain MSSA #1): Susceptible | antibiotic susceptibility/resistance ([1]; strain MSSA #2): Susceptible | antibiotic susceptibility/resistance ([1]; strain MSSA #3): Susceptible | antibiotic susceptibility/resistance ([1]; strain MSSA #4): Susceptible | antibiotic susceptibility/resistance ([1]; strain MSSA #5): Susceptible | antibiotic susceptibility/resistance ([1]; strain MSSA #6): Susceptible | antibiotic susceptibility/resistance ([1]; strain MSSA #7): Susceptible | antibiotic susceptibility/resistance ([1]; strain MSSA #8): Susceptible | antibiotic susceptibility/resistance ([1]; strain MSSA #9): Susceptible | antibiotic susceptibility/resistance ([1]; strain MSSA #10): Susceptible | antibiotic susceptibility/resistance ([1]; strain MSSA #11): Susceptible | antibiotic susceptibility/resistance ([1]; strain MSSA #12): Susceptible | antibiotic susceptibility/resistance ([1]; strain MSSA #13): Susceptible | antibiotic susceptibility/resistance ([1]; strain MSSA #14): Susceptible | antibiotic susceptibility/resistance ([1]; strain MSSA #15): Susceptible | antibiotic susceptibility/resistance ([1]; strain MSSA #16): Susceptible | antibiotic susceptibility/resistance ([1]; strain MSSA #17): Susceptible | antibiotic susceptibility/resistance ([1]; strain MSSA #18): Susceptible | antibiotic susceptibility/resistance ([1]; strain MSSA #19): Susceptible | antibiotic susceptibility/resistance ([1]; strain MSSA #20): Susceptible | antibiotic susceptibility/resistance ([2]; strain MRSA #1): Susceptible | antibiotic susceptibility/resistance ([2]; strain MRSA #2): Susceptible | antibiotic susceptibility/resistance ([2]; strain MRSA #3): Susceptible | antibiotic susceptibility/resistance ([2]; strain MRSA #4): Susceptible | antibiotic susceptibility/resistance ([2]; strain MRSA #5): Susceptible | antibiotic susceptibility/resistance ([2]; strain MRSA #6): Susceptible | antibiotic susceptibility/resistance ([2]; strain MRSA #7): Susceptible | antibiotic susceptibility/resistance ([2]; strain MRSA #8): Susceptible | antibiotic susceptibility/resistance ([2]; strain MRSA #9): Susceptible | antibiotic susceptibility/resistance ([2]; strain MRSA #10): Susceptible | antibiotic susceptibility/resistance ([2]; strain MRSA #11): Susceptible | antibiotic susceptibility/resistance ([2]; strain MRSA #12): Susceptible | antibiotic susceptibility/resistance ([2]; strain MRSA #13): Susceptible | antibiotic susceptibility/resistance ([2]; strain MRSA #14): Susceptible | antibiotic susceptibility/resistance ([2]; strain MRSA #15): Susceptible | antibiotic susceptibility/resistance ([2]; strain MRSA #16): Susceptible | antibiotic susceptibility/resistance ([2]; strain MRSA #17): Susceptible | antibiotic susceptibility/resistance ([2]; strain MRSA #18): Susceptible | antibiotic susceptibility/resistance ([2]; strain MRSA #19): Susceptible | antibiotic susceptibility/resistance ([2]; strain MRSA #20): Resistant | antibiotic susceptibility/resistance ([2]; strain MRSA #21): Susceptible | antibiotic susceptibility/resistance ([2]; strain MRSA #22): Susceptible | antibiotic susceptibility/resistance ([2]; strain MRSA #23): Susceptible | antibiotic susceptibility/resistance ([2]; strain MRSA #24): Susceptible | antibiotic susceptibility/resistance ([2]; strain MRSA #25): Susceptible | antibiotic susceptibility/resistance ([2]; strain MRSA #26): Susceptible | antibiotic susceptibility/resistance ([2]; strain MRSA #27): Susceptible | antibiotic susceptibility/resistance ([2]; strain MRSA #28): Susceptible | antibiotic susceptibility/resistance ([2]; strain MRSA #29): Susceptible | antibiotic susceptibility/resistance ([2]; strain MRSA #30): Resistant

COc1cccc(OC)c1C(=O)N[C@@H]1C(=O)N2[C@@H]1SC(C)(C)[C@@H]2C(=O)O [Methicillin, methicillin]
antibiotic susceptibility/resistance ([1]; strain MSSA #1): Susceptible | antibiotic susceptibility/resistance ([1]; strain MSSA #2): Susceptible | antibiotic susceptibility/resistance ([1]; strain MSSA #3): Susceptible | antibiotic susceptibility/resistance ([1]; strain MSSA #4): Susceptible | antibiotic susceptibility/resistance ([1]; strain MSSA #5): Susceptible | antibiotic susceptibility/resistance ([1]; strain MSSA #6): Susceptible | antibiotic susceptibility/resistance ([1]; strain MSSA #7): Susceptible | antibiotic susceptibility/resistance ([1]; strain MSSA #8): Susceptible | antibiotic susceptibility/resistance ([1]; strain MSSA #9): Susceptible | antibiotic susceptibility/resistance ([1]; strain MSSA #10): Susceptible | antibiotic susceptibility/resistance ([1]; strain MSSA #11): Susceptible | antibiotic susceptibility/resistance ([1]; strain MSSA #12): Susceptible | antibiotic susceptibility/resistance ([1]; strain MSSA #13): Susceptible | antibiotic susceptibility/resistance ([1]; strain MSSA #14): Susceptible | antibiotic susceptibility/resistance ([1]; strain MSSA #15): Susceptible | antibiotic susceptibility/resistance ([1]; strain MSSA #16): Susceptible | antibiotic susceptibility/resistance ([1]; strain MSSA #17): Susceptible | antibiotic susceptibility/resistance ([1]; strain MSSA #18): Susceptible | antibiotic susceptibility/resistance ([1]; strain MSSA #19): Susceptible | antibiotic susceptibility/resistance ([1]; strain MSSA #20): Susceptible | antibiotic susceptibility/resistance ([2]; strain MRSA #1): Resistant | antibiotic susceptibility/resistance ([2]; strain MRSA #2): Resistant | antibiotic susceptibility/resistance ([2]; strain MRSA #3): Resistant | antibiotic susceptibility/resistance ([2]; strain MRSA #4): Resistant | antibiotic susceptibility/resistance ([2]; strain MRSA #5): Resistant | antibiotic susceptibility/resistance ([2]; strain MRSA #6): Resistant | antibiotic susceptibility/resistance ([2]; strain MRSA #7): Resistant | antibiotic susceptibility/resistance ([2]; strain MRSA #8): Resistant | antibiotic susceptibility/resistance ([2]; strain MRSA #9): Resistant | antibiotic susceptibility/resistance ([2]; strain MRSA #10): Resistant | antibiotic susceptibility/resistance ([2]; strain MRSA #11): Resistant | antibiotic susceptibility/resistance ([2]; strain MRSA #12): Resistant | antibiotic susceptibility/resistance ([2]; strain MRSA #13): Resistant | antibiotic susceptibility/resistance ([2]; strain MRSA #14): Resistant | antibiotic susceptibility/resistance ([2]; strain MRSA #15): Resistant | antibiotic susceptibility/resistance ([2]; strain MRSA #16): Resistant | antibiotic susceptibility/resistance ([2]; strain MRSA #17): Resistant | antibiotic susceptibility/resistance ([2]; strain MRSA #18): Resistant | antibiotic susceptibility/resistance ([2]; strain MRSA #19): Resistant | antibiotic susceptibility/resistance ([2]; strain MRSA #20): Resistant | antibiotic susceptibility/resistance ([2]; strain MRSA #21): Resistant | antibiotic susceptibility/resistance ([2]; strain MRSA #22): Resistant | antibiotic susceptibility/resistance ([2]; strain MRSA #23): Resistant | antibiotic susceptibility/resistance ([2]; strain MRSA #24): Susceptible | antibiotic susceptibility/resistance ([2]; strain MRSA #25): Resistant | antibiotic susceptibility/resistance ([2]; strain MRSA #26): Resistant | antibiotic susceptibility/resistance ([2]; strain MRSA #27): Resistant | antibiotic susceptibility/resistance ([2]; strain MRSA #28): Resistant | antibiotic susceptibility/resistance ([2]; strain MRSA #29): Resistant | antibiotic susceptibility/resistance ([2]; strain MRSA #30): Resistant

O=C(O)c1cn(C2CC2)c2cc(N3CCNCC3)c(F)cc2c1=O [Ciprofloxacin, ciprofloxacin]
expression of SosA [3]: increases with the increase in the administration concentration | antibiotic susceptibility/resistance ([1]; strain MSSA #1): Susceptible | antibiotic susceptibility/resistance ([1]; strain MSSA #2): Susceptible | antibiotic susceptibility/resistance ([1]; strain MSSA #3): Susceptible | antibiotic susceptibility/resistance ([1]; strain MSSA #4): Susceptible | antibiotic susceptibility/resistance ([1]; strain MSSA #5): Susceptible | antibiotic susceptibility/resistance ([1]; strain MSSA #6): Susceptible | antibiotic susceptibility/resistance ([1]; strain MSSA #7): Resistant | antibiotic susceptibility/resistance ([1]; strain MSSA #8): Resistant | antibiotic susceptibility/resistance ([1]; strain MSSA #9): Susceptible | antibiotic susceptibility/resistance ([1]; strain MSSA #10): Susceptible | antibiotic susceptibility/resistance ([1]; strain MSSA #11): Susceptible | antibiotic susceptibility/resistance ([1]; strain MSSA #12): Susceptible | antibiotic susceptibility/resistance ([1]; strain MSSA #13): Susceptible | antibiotic susceptibility/resistance ([1]; strain MSSA #14): Susceptible | antibiotic susceptibility/resistance ([1]; strain MSSA #15): Susceptible | antibiotic susceptibility/resistance ([1]; strain MSSA #16): Susceptible | antibiotic susceptibility/resistance ([1]; strain MSSA #17): Susceptible | antibiotic susceptibility/resistance ([1]; strain MSSA #18): Susceptible | antibiotic susceptibility/resistance ([1]; strain MSSA #19): Susceptible | antibiotic susceptibility/resistance ([1]; strain MSSA #20): Resistant | antibiotic susceptibility/resistance ([2]; strain MRSA #1): Resistant | antibiotic susceptibility/resistance ([2]; strain MRSA #2): Resistant | antibiotic susceptibility/resistance ([2]; strain MRSA #3): Susceptible | antibiotic susceptibility/resistance ([2]; strain MRSA #4): Susceptible | antibiotic susceptibility/resistance ([2]; strain MRSA #5): Resistant | antibiotic susceptibility/resistance ([2]; strain MRSA #6): Resistant | antibiotic susceptibility/resistance ([2]; strain MRSA #7): Resistant | antibiotic susceptibility/resistance ([2]; strain MRSA #8): Resistant | antibiotic susceptibility/resistance ([2]; strain MRSA #9): Resistant | antibiotic susceptibility/resistance ([2]; strain MRSA #10): Resistant | antibiotic susceptibility/resistance ([2]; strain MRSA #11): Resistant | antibiotic susceptibility/resistance ([2]; strain MRSA #12): Resistant | antibiotic susceptibility/resistance ([2]; strain MRSA #13): Resistant | antibiotic susceptibility/resistance ([2]; strain MRSA #14): Resistant | antibiotic susceptibility/resistance ([2]; strain MRSA #15): Resistant | antibiotic susceptibility/resistance ([2]; strain MRSA #16): Resistant | antibiotic susceptibility/resistance ([2]; strain MRSA #17): Resistant | antibiotic susceptibility/resistance ([2]; strain MRSA #18): Susceptible | antibiotic susceptibility/resistance ([2]; strain MRSA #19): Resistant | antibiotic susceptibility/resistance ([2]; strain MRSA #20): Resistant | antibiotic susceptibility/resistance ([2]; strain MRSA #21): Resistant | antibiotic susceptibility/resistance ([2]; strain MRSA #22): Resistant | antibiotic susceptibility/resistance ([2]; strain MRSA #23): Resistant | antibiotic susceptibility/resistance ([2]; strain MRSA #24): Susceptible | antibiotic susceptibility/resistance ([2]; strain MRSA #25): Resistant | antibiotic susceptibility/resistance ([2]; strain MRSA #26): Susceptible | antibiotic susceptibility/resistance ([2]; strain MRSA #27): Susceptible | antibiotic susceptibility/resistance ([2]; strain MRSA #28): Resistant | antibiotic susceptibility/resistance ([2]; strain MRSA #29): Resistant | antibiotic susceptibility/resistance ([2]; strain MRSA #30): Resistant
